We go through 31 compounds from ChEMBL document CHEMBL4017452, “Novel boronic acid derivatives of bis(indolyl) methane as anti-MRSA agents” (2017).

A word on the MIC: it is the least concentration at which growth counts as inhibited. High values mean a less susceptible organism, low ones a more susceptible organism.

≈ marks a conversion by molar mass, not a printed value. Calls of active or inactive are those of the source. The calls are words filed in the database; no cut-off is given here.

The subject of one test is Staphylococcus aureus. Nature of the test: Antibacterial activity against methicillin-resistant Staphylococcus aureus clinical isolates after 18 hrs by CLSI method. Format: functional.
Turning to `O=[N+]([O-])c1ccc2[nH]cc(C(c3ccc(Br)cc3)c3c[nH]c4ccc([N+](=O)[O-])cc34)c2c1`, the MIC amounted to 500 µg/mL (≈ 1020 µM).

With `COc1ccc(C(c2c[nH]c3ccc([N+](=O)[O-])cc23)c2c[nH]c3ccc([N+](=O)[O-])cc23)cc1`, the MIC is above 1000 µg/mL.

With `OB(O)c1cccc(C(c2c[nH]c3ccccc23)c2c[nH]c3ccccc23)c1`, the minimal inhibitory concentration (MIC) stood at 3.91 µg/mL (≈ 10.7 µM).

The compound `CN(C)c1ccc(C(c2c[nH]c3ccccc23)c2c[nH]c3ccccc23)cc1` showed an MIC above 1000 µg/mL.

Compound `O=[N+]([O-])c1ccccc1C(c1c[nH]c2ccccc12)c1c[nH]c2ccccc12` had an MIC of 500 µg/mL (≈ 1360 µM).

Take `Cc1ccc(C(c2c[nH]c3ccc([N+](=O)[O-])cc23)c2c[nH]c3ccc([N+](=O)[O-])cc23)cc1`: the MIC is above 1000 µg/mL.

The compound `COc1ccc2[nH]cc(C(c3ccc(N(C)C)cc3)c3c[nH]c4ccc(OC)cc34)c2c1` returned an MIC above 1000 µg/mL.

Take `O=[N+]([O-])c1ccc(C(c2c[nH]c3ccc(Br)cc23)c2c[nH]c3ccc(Br)cc23)cc1`: the MIC came to 15.6 µg/mL (≈ 29.7 µM).

In turn, `O=[N+]([O-])c1ccc(N/N=C/c2ccc(C(c3c[nH]c4ccccc34)c3c[nH]c4ccccc34)cc2)c([N+](=O)[O-])c1` showed an MIC of 500 µg/mL (≈ 942 µM).

For `COc1ccc2[nH]cc(C(c3ccc(C)cc3)c3c[nH]c4ccc(OC)cc34)c2c1`, the MIC is above 1000 µg/mL.

On to `OB(O)c1ccccc1C(c1c[nH]c2ccccc12)c1c[nH]c2ccccc12`, for which the MIC came to 3.91 µg/mL (≈ 10.7 µM).

In the case of `COc1ccc2[nH]cc(C(c3ccccc3)c3c[nH]c4ccc(OC)cc34)c2c1`, the MIC is above 1000 µg/mL.

Turning to `O=[N+]([O-])c1ccc2[nH]cc(C(c3ccc(C(c4c[nH]c5ccc([N+](=O)[O-])cc45)c4c[nH]c5ccc([N+](=O)[O-])cc45)cc3)c3c[nH]c4ccc([N+](=O)[O-])cc34)c2c1`, the MIC is 500 µg/mL (≈ 670 µM).

Take `c1ccc(C(c2c[nH]c3ccccc23)c2c[nH]c3ccccc23)cc1`: the MIC is above 1000 µg/mL.

For the compound `Brc1ccc2[nH]cc(C(c3ccccc3)c3c[nH]c4ccc(Br)cc34)c2c1`, the MIC is above 1000 µg/mL.

`O=[N+]([O-])c1cccc(C(c2c[nH]c3ccccc23)c2c[nH]c3ccccc23)c1`: the MIC is 15.6 µg/mL (≈ 42.5 µM).

As to `COc1ccc(C(c2c[nH]c3ccc(OC)cc23)c2c[nH]c3ccc(OC)cc23)cc1`, the MIC was above 1000 µg/mL.

In the case of `Cc1ccc(C(c2c[nH]c3ccc(Br)cc23)c2c[nH]c3ccc(Br)cc23)cc1`, the MIC stood at 62.5 µg/mL (≈ 126 µM).

Compound `Brc1ccc(C(c2c[nH]c3ccc(Br)cc23)c2c[nH]c3ccc(Br)cc23)cc1` came in with an MIC of 31.2 µg/mL (≈ 55.9 µM).

Consider `Brc1ccc(C(c2c[nH]c3ccccc23)c2c[nH]c3ccccc23)cc1`, for which the MIC is 500 µg/mL (≈ 1250 µM).

In the case of `COc1ccc2[nH]cc(C(c3ccccc3[N+](=O)[O-])c3c[nH]c4ccc(OC)cc34)c2c1`, the MIC turned out to be 500 µg/mL (≈ 1170 µM).

`COc1ccc2[nH]cc(C(c3ccc([N+](=O)[O-])cc3)c3c[nH]c4ccc(OC)cc34)c2c1`: the MIC was above 1000 µg/mL.

`O=[N+]([O-])c1ccc(C(c2c[nH]c3ccccc23)c2c[nH]c3ccccc23)cc1` returned an MIC of 500 µg/mL (≈ 1360 µM).

In the case of `COc1ccc2[nH]cc(C(c3ccc(Br)cc3)c3c[nH]c4ccc(OC)cc34)c2c1`, the MIC is 62.5 µg/mL (≈ 135 µM).

`O=Cc1ccc(C(c2c[nH]c3ccccc23)c2c[nH]c3ccccc23)cc1` yielded an MIC of 500 µg/mL (≈ 1430 µM). Compared with the last compound, the MIC is about 8-fold higher.

Take `OB(O)c1ccc(C(c2c[nH]c3ccccc23)c2c[nH]c3ccccc23)cc1`: the MIC came out at 7.81 µg/mL (≈ 21.3 µM).

`COc1ccc2[nH]cc(C(c3ccc(C(c4c[nH]c5ccc(OC)cc45)c4c[nH]c5ccc(OC)cc45)cc3)c3c[nH]c4ccc(OC)cc34)c2c1` yielded an MIC of 500 µg/mL (≈ 728 µM).

For `O=[N+]([O-])c1ccc(C(c2c[nH]c3ccc([N+](=O)[O-])cc23)c2c[nH]c3ccc([N+](=O)[O-])cc23)cc1`, the MIC stood at 31.2 µg/mL (≈ 68.3 µM).

Consider `Cc1ccc(C(c2c[nH]c3ccccc23)c2c[nH]c3ccccc23)cc1`, for which the MIC was above 1000 µg/mL.

As for `COc1ccc2[nH]cc(C(c3ccc(/C=N/Nc4ccc([N+](=O)[O-])cc4[N+](=O)[O-])cc3)c3c[nH]c4ccc(OC)cc34)c2c1`, the MIC came out at 250 µg/mL (≈ 423 µM).

Turning to `c1ccc2c(C(c3ccc(C(c4c[nH]c5ccccc45)c4c[nH]c5ccccc45)cc3)c3c[nH]c4ccccc34)c[nH]c2c1`, the MIC came out at 1000 µg/mL (≈ 1760 µM).

The next test deals with Staphylococcus aureus. Nature of the test: Binding affinity to methicillin-resistant Staphylococcus aureus [(Ac)2-L-Lys-D-Ala-/-D-Ala] by isothermal titration calorimetric method. In general terms: Isothermal titration calorimetry measures the heat released or taken up as one component is titrated into another.
Compound `OB(O)c1cccc(C(c2c[nH]c3ccccc23)c2c[nH]c3ccccc23)c1` yielded a K of 242 M⁻¹.

In another test the test system is Staphylococcus aureus. Nature of the test: Binding affinity to methicillin-resistant Staphylococcus aureus [(Ac)2-L-Lys-D-Ala-/-D-Ala] assessed as change in enthalpy by isothermal titration calorimetric method.
As for `OB(O)c1cccc(C(c2c[nH]c3ccccc23)c2c[nH]c3ccccc23)c1`, the deltaH was -0.0494 kcal/mol.

A further test relates to Staphylococcus aureus. Nature of the test: Bactericidal activity against methicillin-resistant Staphylococcus aureus at 0.8 to 4 ug/ml. Type of test: functional.
`OB(O)c1cccc(C(c2c[nH]c3ccccc23)c2c[nH]c3ccccc23)c1`: the outcome was Active.

Regarding `OB(O)c1ccccc1C(c1c[nH]c2ccccc12)c1c[nH]c2ccccc12`, the outcome was Active.

In the next test the test system is Staphylococcus aureus. Nature of the test: Bactericidal activity against methicillin-resistant Staphylococcus aureus at 1.6 to 8 ug/ml. Format: functional.
Consider `OB(O)c1ccc(C(c2c[nH]c3ccccc23)c2c[nH]c3ccccc23)cc1`, for which the outcome was Active.

The next test relates to Staphylococcus aureus. Nature of the test: Binding affinity to methicillin-resistant Staphylococcus aureus [(Ac)2-L-Lys-D-Ala-/-D-Ala] assessed as change in entropy by isothermal titration calorimetric method.
Regarding `OB(O)c1cccc(C(c2c[nH]c3ccccc23)c2c[nH]c3ccccc23)c1`, the deltaS was -59.5 cal/mol/deg.
